Measurements: US11931327B2, “Drug for retinal degenerative disease associated with photoreceptor degeneration” (Daiichi Sankyo Company, Limited, priority 2017, dated 2024)

Key:
[1] = test system: transgenic zebrafish Tg (rho: NTR-NanoLuc, my17: DsRed2); test: animal or person
From the text: First, the present inventors constructed a model for evaluating induction of rod cell regeneration. […] Transgenic zebrafish Tg (rho: NTR-NanoLuc, my17: DsRed2), in which a fluorescent protein, DsRed2, which is cardiac-tissue specifically expressed by cardiomyocyte-specific my17 promoter, can be simply detected by using dsRed2 as a marker under a fluorescence stereomicroscope. In the transgenic zebrafish, in addition to cardiac tissue specific expression of DsRed2, a reductase, i.e., nitroreductase (NTR), and a photoprotein, i.e., NanoLuc fusion protein (NTR-NanoLuc), are expressed by a rod-cell specific rho promoter, in a rod-cell specific manner. […] However, if, a prodrug, metronidazole, is added, non-toxic metronidazole is converted to a toxic radical by NTR. […] After rod cells are ablated by treatment with metronidazole, the transgenic zebrafish were washed with rearing water to remove the toxic radical. […] In the transgenic zebrafish, rod cells can be quantitatively determined by measuring the amount of luminescence derived from rod-cell-specific NanoLuc expression. After the rod cells are ablated, the transgenic zebrafish are exposed to a test compound. The activity of the test compound to induce rod-cell regeneration can be quantitatively evaluated by measuring the amount of luminescence derived from NanoLuc and specific to rod cells.
1) On the day before collection of eggs, a pair of male and female zebrafish, i.e., a transgenic fish Tg (rho: NTR-NanoLuc, my17: DsRed2) and a wild type, were placed in a tank for mating and isolated by a divider.
2) The next morning (8:00-11:00), the divider was removed to allow them to mate with each other. Fertilized eggs were collected. In the evening (16:00-18:00) of the same day, only normally developed fertilized eggs were screened and raised in a plate for growth.
3) Day 3 after fertilization, juvenile fish were transferred to rearing water, which contained 10 mM metronidazole (Sigma-Aldrich, Japan) and 1% DMSO (Wako Pure Chemical Industries Ltd.), (prepared by dissolving 60 mg of instant ocean (Napco Limited (Japan)) in 1 L of distilled water), and raised in dark conditions for 24 hours. In this manner, ablation was specifically applied to the rod cells of the juvenile fish. In contrast, non-ablated juvenile fish, which were to be used as a control, were transferred to a tank containing rearing water, which contained a 1% DMSO solution, and raised.
5) Ablated juvenile fish of 4 days after fertilization were washed well with Egg water and dispensed in wells of the assay plate containing a compound together with 100 μL of Egg water, such that 2 juvenile fish individuals were present per well.
6) After the juvenile fish were raised for 2 days, […] of Egg water was removed and ethyl 3-aminobenzoate methanesulfonate (Sigma-Aldrich Japan; 0.4 mg/mL, 10 μL) was added to euthanize the fish.
7) Nano-Glo (registered trademark) Luciferase assay Substrate (Promega Corporation) was added to Nano-Glo (registered trademark) Luciferase assay buffer (Promega Corporation) in a ratio of 1:50 and 100 μL of the resultant solution was added to each of the wells.
8) Shaking was carried out by use of BIO-Mixer (Biotech Japan Co., Ltd.) for one hour and luminescence of NanoLuc (registered trademark) was measured by use of EnVision (PerkinElmer Co., Ltd., Japan).
Individual concentration groups were compared to the DMSO control group by the Dunnett's test.

[2] = test system: Pathological zebrafish 1: Tg (rho: EGFP) crossed with Tg (rho: hRHO (Q344X), omp: EGFP); test: Rod-cell regeneration effect in retinitis pigmentosa model, EGFP observed by confocal laser microscope; type: in vivo; settings: 1 μM; fish raised 2 days with compound; FIG. 6
Method: Pathological model fish, in which rod-cell regeneration can be observed, were prepared using zebrafish known as a retinitis pigmentosa model. The effect of a compound was confirmed in accordance with the following procedure. As the compound to be evaluated, TTNPB (Sigma-Aldrich, Cat. No. T3757-10MG), was used.
1) To prepare a pathological model, in which rod-cell regeneration can be observed, zebrafish Tg (rho: EGFP) (Hamaoka T1, Takechi M, Chinen A et al., Visualization of rod photoreceptor development using GFP-transgenic zebrafish. Genesis. 2002; 34 (3): 215-220.; used as a reporter fish of rod cells) were crossed with zebrafish Tg (rho: hRHO (Q344X), omp: EGFP), which is a name under another nomenclature system of a retinitis pigmentosa model, i.e., zebrafish RH1: hRhodopsin (Q344X) (Nakao T, Tsujikawa M, Notomi S, Ikeda Y, Nishida K., “The role of mislocalized phototransduction in photoreceptor cell death of retinitis pigmentosa.”, PLoS One., 2012; 7 (4): e32472). The zebrafish obtained were specified as zebrafish (Pathological zebrafish 1). Control zebrafish (non-pathological zebrafish) were obtained by crossing zebrafish Tg (rho: EGFP) with wild-type zebrafish. […]
Luminescence of EGFP specifically expressed in rod cells was observed by a confocal laser microscope in the following procedure. […]

[3] = test system: pathological zebrafish 2: Tg (rho: NTR-NanoLuc, my17: DsRed2) crossed with Tg (rho: hRHO (Q344X), omp: EGFP); test: Rod-cell regeneration effect in retinitis pigmentosa model, quantitative evaluation by NanoLuc luminescence; type: in vivo; settings: N=8 per concentration; Dunnett's test; FIG. 7
Method: Pathological model zebrafish, in which rod-cell regeneration can be quantitatively evaluated, were newly prepared using zebrafish known as a retinitis pigmentosa model. The effect of compounds was quantitatively verified in accordance with the following procedure.
1) Quantitative evaluation of rod-cell regeneration was carried out by zebrafish (pathological zebrafish 2) obtained by crossing transgenic Tg (rho: NTR-NanoLuc, my17: DsRed2) and Tg (rho: hRHO (Q344X), omp: EGFP).
Fertilized eggs were collected.
A screening test was repeated 8 times (N=8) at each concentration.
2) After shaking for one hour using BIO-Mixer, the luminescence from NanoLuc (registered trademark) was measured by use of EnVision.

For `C/C(=C\c1ccc(C(=O)O)cc1)c1ccc2c(c1)C(C)(C)CCC2(C)C` [TTNPB, 4-[(E)-2-(5,6,7,8-tetrahydro-5,5,8,8-tetramethyl-2-naphthalenyl)-1-propenyl]benzoic acid], the “rod-cell regeneration induction activity compared to the DMSO control” value ([1]; Examples 3 and 4, TTNPB 0.3, 1, 3, 10 and 30 μM, N=4, RA and BMS493 N=8, Dunnett's test) was “statistically significant rod-cell regeneration induction activity at all concentrations”, the “concentration at which the medicinal effect already reached saturation” value ([1]; minimum concentration tested, range 0.3-30 μM) was ≤ 0.3 µM and the “Activation (%)” value ([1]; screening, 2.5 μM, relative to average of DMSO control = 100) was ≥ 150%. For the same molecule, the “number of rod cells compared to pathological fish untreated with drug” value [2] was “Recovery in the number of rod cells was confirmed” and the “regeneration of rod cells in the retinitis pigmentosa model (luminescence, words)” value [3] was “statistically significant regeneration of rod cells in a dose dependent manner”.
